Measurements published in patent US9783513B2, “STAT3 inhibitors and their anticancer use” (Ohio State Innovation Foundation, priority 2012, dated 2017).

System: HUVEC spheroids
Assay: 3D in vitro angiogenesis (spheroid sprouting) assay
Assay type: cell-based, human
Conditions: 300 nM
Experimental: The Endothelial Tube Formation Assay (CBA200, Cell Biolabs Inc., San Diego, Calif., USA) was used in addition to the HUVEC proliferation assay. The ECM gel was thawed at 4° C. and mixed to homogeneity using cooled pipette tips. Cell culture plates (96-well) were bottom-coated with a thin layer of ECM gel (50 μl/well), which was left to polymerize at 37° C. for 60 min. HUVEC (2-3×10^4 cells) were stimulated with VEGF in 150 μl medium and added to each well on the solidified ECM gel. Culture medium was added to each well in the presence or absence of LY5. The plates were incubated at 37° C. for 12-18 hours and the endothelial tubes were quantified using a fluorescent microscope after staining with Calcein AM. Three microscope fields were selected at random and photographed. Tube forming ability was quantified by counting the total number of cell clusters and branches under a 4× objective and […] per well. The results are expressed as mean fold change of branching compared with the control groups. Each experiment was performed at least three times. The 3D in vitro angiogenesis assay was performed essentially as described by manufactures instructions (promo cell). […] The spheroids were photographed after 24 hours and sprout formation assessed as described.

## NS(=O)(=O)c1cccc2c1C(=O)C=C(Nc1cccnc1)C2=O [LY-5, 5,8-dioxo-6-(pyridin-3-ylamino)-5,8-dihydronaphthalene-1-sulfonamide]
  VEGF induced sprouting from preformed HUVEC spheroids: reduce HUVEC vascular sprout length
Listed as LY5
  VEGF induced sprouting from preformed HUVEC spheroids: impaired angiogenic sprouting
